# Source: ChEMBL document CHEMBL5120967, “Development of an Orally Active Small-Molecule Inhibitor of Receptor Activator of Nuclear Factor-κB Ligand” (J Med Chem, 2022)
# Legend:
# BMDM = experiment: Cytotoxicity against C57/BL6 mouse bone marrow macrophage cells assessed as reduction in cell viability at 10 uM incubated for 3 days by CCK8 assay; assay type: toxicity, cell-based; conditions: 72 h, time 3 day
# [1] = Anti-osteoporosis activity C57/BL6 mouse bone marrow macrophage cells assessed as inhibition of RANKL-induced osteoclastogenesis at 1 uM measured after 5 to 6 days in presence of M-CSF and RNKL by TRAP staining microscopic analysis; assay type: functional, BMDM; parameters: scale not given: the % may be the effect or the level left; conditions: time 5-6 day
# [2] = Anti-osteoporosis activity C57/BL6 mouse bone marrow macrophage cells assessed as inhibition of RANKL-induced osteoclastogenesis at 0.1 uM measured after 5 to 6 days in presence of M-CSF and RNKL by TRAP staining microscopic analysis; assay type: functional, BMDM; parameters: scale not given: the % may be the effect or the level left; conditions: time 5-6 day
# [3] = AUC(0 to t) in OVX-induced C57/BL6 mouse model at 3 mg/kg, iv; assay type: ADME, organism-based; parameters: dose 3 mg/kg, route iv; conditions: female, in vivo
# [4] = AUC(0 to t) in OVX-induced C57/BL6 mouse model at 5 mg/kg, po; assay type: ADME, organism-based; parameters: dose 5 mg/kg, route po; conditions: female, in vivo
# [5] = Half life in OVX-induced C57/BL6 mouse model at 5 mg/kg, po; assay type: ADME, organism-based; conditions: female, in vivo
# [6] = Oral bioavailability in OVX-induced C57/BL6 mouse model; assay type: ADME, organism-based; conditions: female, in vivo
# [7] = Half life in OVX-induced C57/BL6 mouse model at 3 mg/kg, iv; assay type: ADME, organism-based; conditions: female, in vivo
# [8] = Clearance in OVX-induced C57/BL6 mouse model at 3 mg/kg, iv; assay type: ADME, organism-based; conditions: female, in vivo
# [9] = Cmax in OVX-induced C57/BL6 mouse model at 5 mg/kg, po; assay type: ADME, organism-based; parameters: dose 5 mg/kg, route po; conditions: female, in vivo
SMILES,Cell viability (BMDM) [%],Activity [1] [%],Activity [2] [%],other results
CC(=O)Nc1ccc(CCc2nc(C(=O)Nc3c(C)cccc3C)cc3c2[nH]c2ccccc23)cc1,> 100,55,19,–
O=C(Nc1cccnc1)c1cc2c([nH]c3ccccc32)c(CCc2ccccc2)n1,> 100,18.3,–,–
O=C(Nc1ncc[nH]1)c1cc2c([nH]c3ccccc32)c(CCc2ccccc2)n1,> 100,78.9,10.7,–
Cc1cccc(C)c1NC(=O)c1cc2c([nH]c3ccccc32)c(CCc2cccc(O)c2)n1,> 100,0,–,–
Cc1cccc(C)c1NC(=O)c1cc2c([nH]c3ccccc32)c(CCc2ccc(N(C)C)cc2)n1,> 100,54.7,36.7,–
Cc1cccc(C)c1NC(=O)c1cc2c([nH]c3ccccc32)c(CCc2cccnc2)n1,51.2,–,–,–
Cc1cccc(C)c1NC(=O)c1cc2c([nH]c3ccccc32)c(CCC2CCCCC2)n1,> 100,52.8,9.1,–
O=C(Nc1ccncc1)c1cc2c([nH]c3ccccc32)c(CCc2ccccc2)n1,> 100,56.6,18.4,–
Cc1cccc(C)c1NC(=O)c1cc2c([nH]c3ccccc32)c(CCc2ccc(C#N)cc2)n1,> 100,79.5,16.5,–
O=C(Nc1ccccn1)c1cc2c([nH]c3ccccc32)c(CCc2ccccc2)n1,> 100,36.1,–,–
CNc1ccc(CCc2nc(C(=O)Nc3c(C)cccc3C)cc3c2[nH]c2ccccc23)cc1,> 100,37.9,–,–
Cc1cccc(C)c1NC(=O)c1cc2c([nH]c3ccccc32)c(CCc2cccc(F)c2)n1,> 100,54.7,21,–
Cc1cccc(C)c1NC(=O)c1cc2c([nH]c3ccccc32)c(CCc2ccc(C(F)(F)F)cc2)n1,> 100,72.5,19.5,–
O=C(Nc1cc[nH]n1)c1cc2c([nH]c3ccccc32)c(CCc2ccccc2)n1,> 100,39.9,–,–
Cc1cccc(C)c1NC(=O)c1cc2c([nH]c3ccccc32)c(CCc2ccc(N)cc2)n1,> 100,70.3,11.4,–
COc1cccc(CCc2nc(C(=O)Nc3c(C)cccc3C)cc3c2[nH]c2ccccc23)c1,> 100,82.3,27.1,–
Cc1cccc(C)c1NC(=O)c1cc2c([nH]c3ccccc32)c(CCc2ccc(P(C)(C)=O)cc2)n1,> 100,81.6,32.6,–
O=C(Nc1nccs1)c1cc2c([nH]c3ccccc32)c(CCc2ccccc2)n1,> 100,27,–,–
Cc1cccc(C)c1NC(=O)c1cc2c([nH]c3ccccc32)c(CCc2ncc[nH]2)n1,> 100,28.6,–,–
Cc1cccc(C)c1NC(=O)c1cc2c([nH]c3ccccc32)c(CCc2ccc(C(=O)O)cc2)n1,> 100,85.9,37.6,–
O=C(NCc1ccccc1)c1cc2c([nH]c3ccccc32)c(CCc2ccccc2)n1,> 100,0,–,–

SMILES,Cell viability (BMDM) [%],Activity [1] [%],Activity [2] [%],other results
Cc1cccc(C)c1NC(=O)c1cc2c([nH]c3ccccc32)c(CCc2ccccc2O)n1,87.1,36,–,–
Cl.O=C(NC1CCNCC1)c1cc2c([nH]c3ccccc32)c(CCc2ccccc2)n1,47.9,0,–,–
Cc1cccc(C)c1NC(=O)c1cc2c([nH]c3ccccc32)c(CCc2nccs2)n1,71,–,–,–
Cc1cccc(C)c1NC(=O)C(Cc1c[nH]c2ccccc12)NCCCc1ccccc1 (centres undefined),> 100,32,–,AUC(0-t) [3]: 984 ng·h/mL; AUC(0-t) [4]: 38.8 ng·h/mL; half-life [5]: 0.9 h; bioavailability [6]: 2.4%; half-life [7]: 1.2 h; clearance [8]: 51 mL/min/kg; Cmax [9]: 10 ng/mL
Cc1cc2occ(CN(C)CCN(C)Cc3cn(-c4cccc(C(F)(F)F)c4)c4ccccc34)c(=O)c2cc1C,3.8,56.1,18.4,–
Cc1ccc(CCc2nc(C(=O)Nc3c(C)cccc3C)cc3c2[nH]c2ccccc23)cc1,> 100,77.6,16.2,–
Cc1cccc(C)c1NC(=O)c1cc2c([nH]c3ccccc32)c(CCc2ccncc2)n1,> 100,79.1,29.8,–
O=C(NC1CCCCC1)c1cc2c([nH]c3ccccc32)c(CCc2ccccc2)n1,> 100,0,–,–
O=C(c1cc2c([nH]c3ccccc32)c(CCc2ccccc2)n1)N1CCOCC1,> 100,32.6,–,–
Cc1cccc(C)c1NC(=O)c1cc2c([nH]c3ccccc32)c(CCc2ccc(Cl)cc2)n1,> 100,52.5,11.3,–
Cn1cc(NC(=O)c2cc3c([nH]c4ccccc43)c(CCc3ccccc3)n2)cn1,> 100,0,–,–
Cc1cccc(C)c1NC(=O)c1cc2c([nH]c3ccccc32)c(CCc2ccc(O)cc2)n1,76.9,23.8,–,–
Cc1cccc(C)c1NC(=O)c1cc2c([nH]c3ccccc32)c(CCc2ccccc2F)n1,> 100,66.7,26.7,–
Cc1cccc(C)c1NC(=O)c1cc2c([nH]c3ccccc32)c(CCc2ccc(F)cc2)n1,> 100,65.2,28.2,–
COc1ccccc1CCc1nc(C(=O)Nc2c(C)cccc2C)cc2c1[nH]c1ccccc12,> 100,83,33.6,–
Cc1cccc(C)c1NC(=O)c1cc2c([nH]c3ccccc32)c(CCc2cc(F)cc(F)c2)n1,> 100,35.2,–,–
Cc1cccc(C)c1NC(=O)c1cc2c([nH]c3ccccc32)c(CNc2ccccc2)n1,67.6,–,–,–
O=C(NC1CC1)c1cc2c([nH]c3ccccc32)c(CCc2ccccc2)n1,> 100,0,–,–
O=C(NC1CCOCC1)c1cc2c([nH]c3ccccc32)c(CCc2ccccc2)n1,> 100,47.9,–,–
COC(=O)c1ccc(CCc2nc(C(=O)Nc3c(C)cccc3C)cc3c2[nH]c2ccccc23)cc1,99.6,77.6,28.5,–
COc1ccc(CCc2nc(C(=O)Nc3c(C)cccc3C)cc3c2[nH]c2ccccc23)cc1,> 100,75.7,29.3,–
